# Data from patent publication US7531187B2, “Synergistic insecticidal composition containing chloronicotynyle and pyrethroids compounds” (United Phosphorus, Ltd., priority 2004, dated 2009).
# Where two headings read alike, the source gives them in different places.
# Tests used:
# [1] = tested on: Brown plant hoppers and Green plant hoppers; test: Treated paddy leaf bioassay, larval mortality, Colby synergism (Examples 13-14); type: in vivo
# Experimental: In this evaluation, Brown plant hoppers and Green plant hoppers are obtained from laboratory colonies. Paddy leaves are immersed in 1:1 v/v, acetone/water solutions of the test compound, or solution of a combination of the test compounds for a period of about 4 seconds. Following immersion, leaves are allowed to air-dry for 2-3 hours. Plastic bioassay trays containing multiple open-faced wells (4.0×4.0×2.5 cm) are used. Cut portions of a treated leaf, a moistened cotton dental wick and a single third-instar larva are placed into each well. These wells are covered with an adhesive vented clear plastic sheet which is held under constant fluorescent light at about 30° C. for a predetermined period of time. Larval mortality/morbidity is evaluated at 5 days after treatment. All treatments are replicated 3-4 fold in a randomized complete block design with 15-30 larvae per treatment. Using conventional log-probit analysis, the LC50 of each treatment is determined.
# Synergism can be calculated by using the Colby's method i.e. the expected (or predicted) response of the combination is calculated by taking the product of the observed response for each individual component of the combination when applied alone divided by 100 and subtracting this value from the sum of observed response for each component when applied alone. Synergism of the combination is then determined by comparing the observed response of the combination to the expected (or predicted) response as calculated from the observed response of each individual component alone. If the observed response of the combination is greater than the expected (or predicted) response, then the combination is said to be synergistic and falls within the definition of synergistic effect. (Colby, S. R., Weeds, 1967(15), p. 20-22)
# [2] = cited from earlier work
# [3] = cited from earlier work; remark: listed apart in the source
# rats [4] = settings: cited from earlier work
# flies = settings: cited from earlier work
# rats [5] = settings: cited from earlier work; remark: listed apart in the source
# [6] = cited from earlier work; for pH of optimum stability: more stable in acid than in alkaline media
# domestic fowl = settings: cited from earlier work
# [7] = in vivo; cited from earlier work
# rats [8] = settings: cited from earlier work; remark: listed apart in the source
# rabbits = settings: cited from earlier work
# mice = settings: cited from earlier work
# [9] = tested on: cockroaches and other crawling insets; settings: 100 mg a.i. (as WP)/m^2; cited from earlier work
# chicken = settings: cis/trans ratio of 40:60; cited from earlier work
# Japanese quail = settings: cis/trans ratio of 40:60; cited from earlier work
molecule,measurement,setting,value
"CC1(C)C(C=C(Cl)Cl)C1C(=O)OC(C#N)c1cccc(Oc2ccccc2)c1 (racemic) [Cypermethrin, (RS)-α-cyano-3-phenoxybenzyl (1RS, 3RS; IRS, 3SR)-3-(2,2-dichlorovinyl)-2,2-dimethyl cyclopropane carboxylate]",Observed Mortality %,"[1]; Table 2, Cypermethrin 80 ppm alone",52.5%
same,Observed Mortality %,"[1]; Table 2, Cypermethrin 85 ppm alone",60%
same,Observed Mortality %,"[1]; Table 2, Cypermethrin 90 ppm alone",70%
same,Observed Mortality %,"[1]; Table 3, Cypermethrin 80 ppm alone",60.0%
same,Observed Mortality %,"[1]; Table 3, Cypermethrin 85 ppm alone",65%
same,Observed Mortality %,"[1]; Table 3, Cypermethrin 90 ppm alone",72.0%
"CC(C)[C@@H](C(=O)O[C@@H](C#N)c1cccc(Oc2ccccc2)c1)c1ccc(Cl)cc1 (racemic) [Fenvalerate, (RS)-α-cyano-3-phenoxybenzyl (RS)-2-(4-chlorophenyl)-3-methylbutyrate]","Solubility in acetone, chloroform, cyclohexanone, ethanol, xylene",[2]; 23° C.,> 1 kg/kg
same,Solubility in hexane,[2]; 23° C.,155 g/kg
same,solubility in water,[3]; 20° C.,< 1 µg/mL
same,acute oral LD50,rats [4]; rats,451 mg/kg
same,duration of control of flies in cattle sheds,flies; 110 mg/aquare meter wall,60 days
same,Acute percutaneous LD50,rats [5]; rats,> 5000 mg/kg
same,pH of optimum stability,[6],4
same,acute oral LD50,domestic fowl,> 1600 mg/kg
"O=[N+]([O-])NC1=NCCN1Cc1ccc(Cl)nc1 [Imidacloprid, 1-(6-chloro-3-pyridylmethyl)-N-nitroimidazolidin-2-yldeneamine]",solubility in n.hexane,[2]; 20° C.,< 100 µg/mL
same,skin sensitisation,[7],Not a skin sensitiser
same,inhalation LC50 (4 h),"rats [8]; female rats, aerosol",> 5323 mg/m^3 air
same,Acute percutaneous LD50 (24 h),"rats [5]; rats, 24 h",> 5000 mg/kg
same,Observed Mortality %,"[1]; Table 2, Imidacloprid 24 ppm alone, 5 days after treatment",55.00%
same,Observed Mortality %,"[1]; Table 2, Imidacloprid 27 ppm alone",69.25%
same,Observed Mortality %,"[1]; Table 2, Imidacloprid 30 ppm alone",72.10%
same,stability to hydrolysis,[6]; pH 5,Stable
same,irritation to skin and eyes,"rabbits; rabbit, in vivo",Non irritating
"CC1(C)C(C=C(Cl)Cl)C1C(=O)OCc1cccc(Oc2ccccc2)c1 (stereo not drawn) [Permethrin, 3-phenoxybenzyl(1RS,3 RS; 1 RS, 3SR)-3-(2,2-dichlorovinyl)-2,2-dimethylcyclopropanecarboxylate]",Solubility in Xylene,[2]; 25° C.,≥ 1 kg/kg
same,Solubility in hexane,[2]; 25° C.,> 1 kg/kg
same,Solubility in methanol,[2]; 25° C.,258 g/kg
same,Typical oral LD50,"mice; mice, cis/trans ratio of 40:60",540 to 2690 mg/kg
same,duration of control of cockroaches and other crawling insets,[9],> 120 days
same,Typical oral LD50,"rats [4]; rats, cis/trans ratio of 40:60",430 to 4000 mg/kg
same,duration of residual control of biting flies in animal housing,flies; 200 mg a.i. (as EC)/square meter wall or 30 mg a.i. (as WP)/m^2 wall,< 60 days
same,stability to heat,[6]; 50° C.,≥ 2 years
same,"photochemical stability, in words",[6]; laboratory studies,Some photochemical degradation
same,pH of optimum stability,[6],4
same,Typical oral LD50,chicken,> 300 mg/kg
same,Typical oral LD50,Japanese quail,> 13500 mg/kg
(E)-N′-[(6-chloro-3-pyridyl)methyl]-N-cyano-N-methylacetamidine [Acetamiprid],"solubility in organic solvents, in words","[2]; acetone, methanol, ethanol, dichloromethane, chloroform, acetonitrile and tetrahydrofuron",Soluble
same,solubility in water,[3]; 25° C.,4200 µg/mL
same,acute oral LD50,mice; female mice,184 mg/kg
same,acute oral LD50,mice; male mice,198 mg/kg
same,acute oral LD50,rats [4]; female rats,146 mg/kg
same,acute oral LD50,rats [4]; male rats,217 mg/kg
same,inhalation LC50 (4 h),rats [8]; male and female rats,> 0.29 mg/L
same,Acute percutaneous LD50,rats [5]; male and female rats,> 2000 mg/kg
same,Observed Mortality %,"[1]; Table 3, Acetamiprid 24 ppm alone",47.30%
same,Observed Mortality %,"[1]; Table 3, Acetamiprid 27 ppm alone",69.25%
same,Observed Mortality %,"[1]; Table 3, Acetamiprid 30 ppm alone",72.1%
same,stability in buffered solutions,"[6]; pH 4,5,7",Stable
same,stability in buffered solutions,[6]; pH 9 and 45° C.,Degraded slowly
same,stability under sunlight,[6]; sunlight,Stable
same,irritation to skin and eyes,rabbits; rabbits,Non irritating
